# In patent US8343458B2, “Probes for in vivo targeting of active cysteine proteases” (The Board of Trustees of the Leland Stanford Junior …, priority 2008, dated 2013):
# Entries after “also recorded” stand apart in the source; their conditions may differ.
# What was measured:
# [1] = tested on: cathepsins B and L; test: Labeling of intact tumor cells (SDS-PAGE, gel scan); type: cell-based, mouse (C2C12/Ras), human (MDA-MB-435)
# Description: FIG. 2 is a series of figures which, taken together, show the structure and function of representative in vivo probes. FIG. 2A is a schematic drawing of a chelator—conjugated probe, illustrating several component moieties. FIGS. 2B and 2C are gels showing expression and activity of enzyme targets of such probe, with a radionuclide label attached to the illustrated structure, showing the expression and activity of CB in a mouse myoblast cell line C2C12Ras and human breast cancer cell line MDA-MB-435. […] Cells were pretreated with JPM-OEt (50 μM) (+) or with control DMSO (0.1%) (−) for 2 h and labeled by addition of ^64Cu-Z-FK(DOTA)-AOMK (555 KBq, 15 μCi) to culture medium for 2 h. Cells were collected, lysed and analyzed after SDS-PAGE. The labeled proteases were visualized by scanning of the gel with a Typhoon 9410 imager.
# Before applying the radiolabel probe in vivo we first tested the ability of the probe to label multiple tumor cell lines grown in vitro. We initially examined the labeling of the human breast cancer cell line MBA-MB-435 and a mouse myoblastoma cell line that had been transformed by overexpression of the ras oncogene (C2C12/Ras). Both of these cell lines were used for in vivo imaging studies with the NIRF-labeled cysteine cathepsin probes. To confirm earlier studies of these cells using the NIRF probes we labeled them with general Cy5-labeled probe GB123 (FIG. 1C). […] Labeling of the same cells with ^64Cu-Z-FK(DOTA)-AOMK confirmed that the DOTA produced a similar labeling pattern to that observed for the NIRF probe GB123.
# C2C12/Ras and MDA-MB-435 cells (0.25 M each well) were seeded in a six-well plate one day before the study. Cells were pretreated with the general papain family protease inhibitor JPM-OEt (50 μM^28) or with control DMSO (0.1%) for 1 h and labeled by addition of ^64Cu-Z-FK(DOTA)-AOMK (555 KBq, 15 μCi) to culture medium for 2 h. Cells was then washed with PBS and lysed. Equal amounts of protein per lane were separated by 12% SDS-PAGE. […] The labeled bands were quantified with ImageJ 1.36b (public domain software from National Institute of Health).
# [2] = tested on: C2/C12 Ras tumors; test: Tumor uptake of 64Cu-labeled cathepsin probes in tumor-bearing mice (FIG. 7); type: in vivo, mouse; settings: 64Cu-labeled probe; for tumor uptake after 2 hrs / tumor uptake after 24 hours: IV
# Method: Mice bearing tumors derived from […] C2/C12 Ras transformed cells were IV injected with ^64Cu-labeled probes. Images and total probe accumulation in tumors (arrows) is shown. For purposes of reproduction, the image is converted to black and white and reversed.
# Essentially, two to four weeks prior to imaging MDA-MB 231 or C2C12/ras cells (a myoblast cell line wherein ras blocks differentiation) at 2×10^6 cell per spot were injected subcutaneous to the back of Balb-c nude mice.
# Mice bearing tumors of similar size were injected intravenous via the tail vein with a DMSO/PBS solution of the compound to be tested. DMSO/PBS was locally injected directly into tumors in indicated mice, 15 minutes prior to probe injection. Fluorescent intensity as photons per second per centimeter square per steradian (p/s/cm2/sr) was recorded from living mice. Images were taken at various time points after probe injection using an IVIS 200 imaging system equipped with a Cy5.5 filter. Other protocols are known and may be adapted for administration and imaging in vivo using the present compounds. Another protocol for mouse studies is given in Joyce et al. “Cathepsin cysteine proteases are effectors of invasive growth and angiogenesis during multistage tumorigenesis,” Cancer Cell 5:443-452 (May 2004), at page 452.
# In an initial attempt to make PET compatible cathepsin probes, a Cy5 tag was replaced with a group that could be used to bind ^64Cu. This was compound ^64Cu-DOTA-FFK-AOMK (GB172). […] Without wishing to be bound by any theory, it was reasoned that this poor accumulation in tumors was likely due to changes in the pharmacokinetic (PK) and cell permeability properties as the result of removal of the large, hydrophobic fluorophore molecule. While the improved uptake of the probe having both the macrocyclic chelator and the polyaromatic functionality (Cy5), it is thought that the combination of a bulky chelator and a substituted polyaromatic provided the probe molecule with provided a balance of mass, charge and hydrophobicity that gave the probe increased permeability through the outer lipid membranes of the cells. Following this logic, a version of GB-123 that retains the Cy5 fluorophore and also contains a site for attachment of the PET imaging tag was prepared. This was 64 Cu (GB170).
# [3] = target: cathepsin B (Homo sapiens, UniProt P07858); test: Kinetic inhibition study, cathepsin B; type: biochemical; settings: kinetic inhibition studies
# Description: (§1) We attached the chelator and radionuclide to the probe at the P1 lysine side-chain. By attaching the radiolabel to a side chain, it is less likely to interfere with the binding of the AOMK warhead to the active protease. Previous work has shown that the majority of critical substrate interactions take place in the P2 position of the papain family proteases.
# (§2) The kinetics of inhibition may be determined by progress curve method under pseudo-first order conditions with at least 10-fold molar excess of inhibitor. Recorded progress curves are analysed by non-linear regression according to the following equation (Bieth, J. G. Theoretical and practical aspects of proteinase inhibition kinetics. Methods Enzymol, 248, 59-84 (1995).) [P]=vz(1−e^−k·t)/k • where [P] is the product, vz is the velocity at time zero and k is the pseudo first order rate constant. Apparent rate constant (kapp) was determined from the slope of plot k versus [I]. […]
# (§3) Activity of human cathepsin L is measured using the fluorogenic substrate Z-FRAMC37 (Bachem, USA) (Km=7.1 μM) and cathepsin B is assayed against the fluorogenic substrate Z-RR-AMC38 (Bachem, USA) (Km=114 μM). […] Increase of fluorescence (370 nm excitation, 460 nm emission) is continuously monitored for 30 minutes by Spectramax M5 spectrofluorimeter. (Molecular Devices, USA) and inhibition curves were recorded. […]
# [4] = target: human cathepsin L (Homo sapiens, UniProt P07711); test: Kinetic inhibition study, cathepsin L; type: biochemical; settings: kinetic inhibition studies
# Description: as §1, §2, §3
# [5] = tested on: C2C12/Ras tumors; test: Biodistribution in nude mice bearing subcutaneous C2C12/Ras tumors; type: in vivo, mouse; settings: C2C12/Ras tumor mice, i.v. 740 kBq
# Method: All animal studies were carried out in compliance with Federal and local institutional rules for the conduct of animal experimentation. Female athymic nude mice (nu/nu) were obtained from Charles River Laboratories (Boston, Mass.) at 7-8 weeks old and kept under sterile conditions. The nude mice were inoculated subcutaneously in the right shoulder with 2×10^6 cultured C2C12/Ras cells or 5×10^6 MDA-MB-435 cells. When the tumors reach 0.5-0.8 cm in diameter, the tumor bearing mice were subjected to in vivo biodistribution studies. For biodistribution studies, the mice bearing C2C12/Ras or MDA-MB-435 tumor xenografts (n=3 for each group) were injected with 740 KBq (20 μCi) of ^64Cu labeled tracer through the tail vein and sacrificed at different time points post injection (p.i.). Tumor and normal tissues of interest were removed and weighed, and their radioactivity was measured in a gamma-counter. The radioactivity uptake in the tumor and normal tissues was expressed as a percentage of the injected radioactive dose per gram of tissue (% ID/g).
# We next examined the overall biodistribution of ^64Cu-Z-FK(DOTA)-AOMK using athymic nude mice carrying subcutaneously grafted C2C12/Ras and MDA-MB-435 tumors. […] Importantly, we observed rapid accumulation of radioactivity in the C2C12/Ras tumors expressing high levels of cysteine cathepsins (0.35±0.13% ID/g at 0.5 h p.i.). This activity remained in the tumors resulting in an uptake of 0.27±0.05% ID/g at 24 h p.i. For the MDA-MB-435 tumors with lower cysteine cathepsin expression, tumor uptake was approximately 2 fold lower at each time point relative to the C2C12/Ras tumors (P<0.05). […] The highest radioactivity was found in the liver due to high endogenous expression of various cysteine cathepsins. Moderate renal accumulation was also observed at all times in both tumor models.
# Data are expressed as the percentage administered activity (injected dose) per gram of tissue (% ID/g) after intravenous injection of 740 kBq (20 μCi) of ^64Cu-Z-FK(DOTA)-AOMK at 0.5, 2, and 24 h pi (n=3). Significant lower tumor uptake and tumor/blood, tumor/muscle ratio in MDA-MB-435 breast cancer (P<0.05) were observed.
# [6] = Octanol/water partition coefficient; type: physicochemical; settings: octanol / PBS pH 7.4, repeated 3 times
# Method: Octanol/water partition coefficient. To determine the lipophilicity of ^64Cu-Z-FK(DOTA)-AOMK, approximately 370 kBq of ^64Cu-labeled complex in 500 μl of PBS (pH 7.4) was added to 500 μl of octanol in an eppendorf microcentrifuge tube. The resulting biphasic system was mixed vigorously for 10 min and left at room temperature for another 60 min. The two phases were then separated by centrifugation at 2000 g for 5 min (model 5415R Eppendorf microcentrifuge; Brinkman, Westbury, N.Y.). From each layer, an aliquot of 100 μl was removed and counted in a γ-counter (Packard Instruments). The partition coefficient (log P) was then calculated as a ratio of counts in the octanol fraction to the counts in the water fraction. The experiment was repeated 3 times. The lipophilicity of the probe affects its in vivo pharmacokinetics, and should be modest (˜0), with hydrophobic and hydrophilic groups present. For further details, see Lin et al., “Role of Pharmacokinetics and Metabolism in Drug Discovery and Development,” Pharmacological Reviews, Vol. 49, Issue 4, 403-449, December 1997.
# [7] = tested on: cathepsin B; settings: Kato et al. Nat Chem Biol 2005; cited from earlier work
# [8] = tested on: Cathepsin Z, H, J, C; settings: Kato et al. Nat Chem Biol 2005; cited from earlier work
# human cathepsin L, sequence (P07711 114-333): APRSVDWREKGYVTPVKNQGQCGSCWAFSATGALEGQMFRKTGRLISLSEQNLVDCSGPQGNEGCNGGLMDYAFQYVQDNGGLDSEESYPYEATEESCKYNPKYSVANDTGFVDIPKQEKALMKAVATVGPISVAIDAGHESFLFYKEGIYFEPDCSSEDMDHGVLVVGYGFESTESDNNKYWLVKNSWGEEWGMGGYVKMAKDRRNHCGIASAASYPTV
compound,measurement,setting,value
CCN1C(=CC=CC=CC2=[N+](CCCCCC(=O)NCCCC[C@H](NC(=O)[C@H](Cc3ccccc3)NC(=O)OCc3ccccc3)C(=O)COC(=O)c3c(C)cccc3C)c3ccc(S(=O)(=O)O)cc3C2(C)C)C(C)(C)c2cc(S(=O)(=O)O)ccc21 [GB123],Cathepsin B and L activity of C2C12/Ras relative to MDA-MB-435 cells by probe labeling,[1]; cells labeled with Cy5-labeled probe,7.4 fold
"CC[N+]1=C(/C=C/C=C/C=C2\N(CCCCCC(=O)NCCCC[C@H](NC(=O)[C@H](Cc3ccccc3)NC(=O)[C@H](Cc3ccccc3)NC(=O)CN3CCN(CC(=O)O)CCN(CC(=O)O)CCN(CC(=O)O)CC3)C(=O)COC(=O)c3c(C)cccc3C)c3ccc(S(=O)(=O)O)cc3C2(C)C)C(C)(C)c2cc(S(=O)(=O)O)ccc21 [GB 170, DOTA-FFK(Cy5)-AOMK]",Tumor uptake in PET studies (in words),[2],dramatically increased uptake in tumor tissues
same,tumor uptake after 2 hrs,[2],3.17 ± 0.05
same,tumor uptake after 24 hours,[2],1.56 ± 0.23
"Cc1cccc(C)c1C(=O)OCC(=O)[C@H](CCCCN)NC(=O)[C@H](Cc1ccccc1)NC(=O)[C@H](Cc1ccccc1)NC(=O)CN1CCN(CC(=O)O)CCN(CC(=O)O)CCN(CC(=O)O)CC1 [GB 172, DOTA-FFK-AOMK]",Tumor uptake in PET studies (in words),[2],overall probe uptake was very low
same,tumor uptake after 2 hrs,[2],0.41 ± 0.07
same,tumor uptake after 24 hours,[2],0.32 ± 0.04
"CC[N+]1=C(/C=C/C=C/C=C2\N(CCCCCC(=O)NCCCC[C@H](NC(=O)[C@H](Cc3ccccc3)NC(=O)[C@H](Cc3ccccc3)NC(=O)CN3CCN(CC(=O)O)CCN(CC(=O)O)CCN(CC(=O)O)CC3)C(N)=O)c3ccc(S(=O)(=O)O)cc3C2(C)C)C(C)(C)c2cc(S(=O)(=O)O)ccc21 [GB 173, DOTA-FFK(Cy5)-AOMK-Amide]",tumor uptake after 2 hrs,[2],1.71 ± 0.08
same,tumor uptake after 24 hours,[2],0.37 ± 0.13
Cc1cccc(C)c1C(=O)OCC(=O)[C@H](CCCCN)NC(=O)[C@H](Cc1ccccc1)NC(=O)OCc1ccccc1 [NH2-GB11],Loss of potency for cathepsin B on modification of the P1 lysine,[3],30 fold
same,Loss of potency towards cathepsin L on modification of the P1 lysine,[4],100 fold
Cc1cccc(C)c1C(=O)OCC(=O)[C@H](CCCCNC(=O)CN1CCN(CC(=O)O)CCN(CC(=O)O)CCN(CC(=O)O)CC1)NC(=O)[C@H](Cc1ccccc1)NC(=O)OCc1ccccc1 [Z-FK(DOTA)-AOMK],Biodistribution: Tumor,[5]; 2 h p.i.,0.30±0.03 % ID/g
same,Biodistribution: Tumor,[5]; 24 h p.i.,0.27±0.05 % ID/g
same,log P (octanol-water partition coefficient),[6],−0.10±0.04
Cc1cccc(C)c1C(=O)OCC(=O)[C@H](CCCNC(=N)N)NC(=O)[C@H](Cc1ccccc1)NC(=O)OCc1ccccc1 [Z-FR-AOMK],Activity against cathepsin B,[7],active only against cathepsin B; also recorded: inhibits cathepsin B
same,"Activity against cathepsins Z, H, J, C",[8],"not cathepsins Z, H, J, H or C; also recorded: not Cathepsin Z, H, J, C or H"
JPM-OEt,Effect of inhibitor pretreatment on probe labeling of protease targets,"[1]; cells pretreated with 50 μM inhibitor, then labeled with 64Cu-Z-FK(DOTA)-AOMK",complete loss of labeling
